Results from patent US7754866B2 (Arena Pharmaceuticals, Inc., priority 1997, dated 2010).
Values joined by “and” are separate entries in the source; they are usually repeats but may differ in a detail not shown here. Equal entries are not always repeated. Where two headings read alike, the source gives them in different places.

Tests used:
[1] = target: T1, wild type human 5HT2A receptor (Homo sapiens, UniProt P28223); assay: Competitive binding assay, [3H]LSD, WT 5HT2A; conditions: for difference in selectivity preference (IC50 values) for the 5HT2A receptor compared with the 5HT2C receptor: 5HT2A versus 5HT2C
T1 construct: expressed in transfected cells; host or cells: COS-7 cells, pCMV vector

[2] = target: T2, human mutated 5HT2A receptor, AP-3 (Homo sapiens, UniProt P28223, T25N); assay: Inositol phosphate accumulation assay, AP-3; assay type: cell-based; conditions: for remaining activity at 10 µM: read-out: IP3 % of Control;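 as to all read-outs here: transfected 293 cells prelabeled with 3H-inositol, exposed to compound 120 min at 37 °C with LiCl and pargyline, inositol trisphosphates isolated by anion exchange and counted by scintillation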
T2 construct: Inositol Phosphate Accumulation AP-3 IC50 Value (nM); other: several concentrations; IP3 % of Control; other: one concentration of 10 μM, triplicate; control without test compound

[3] = competitive binding using LSD, read-out: WT 5HT2A LSD IC50
[4] = several concentrations, read-out: IP3 AP-3 IC50
[5] = one concentration of 10 μM, triplicate, control without test compound

T2 sequence (P28223 whole entry T25N, looked up): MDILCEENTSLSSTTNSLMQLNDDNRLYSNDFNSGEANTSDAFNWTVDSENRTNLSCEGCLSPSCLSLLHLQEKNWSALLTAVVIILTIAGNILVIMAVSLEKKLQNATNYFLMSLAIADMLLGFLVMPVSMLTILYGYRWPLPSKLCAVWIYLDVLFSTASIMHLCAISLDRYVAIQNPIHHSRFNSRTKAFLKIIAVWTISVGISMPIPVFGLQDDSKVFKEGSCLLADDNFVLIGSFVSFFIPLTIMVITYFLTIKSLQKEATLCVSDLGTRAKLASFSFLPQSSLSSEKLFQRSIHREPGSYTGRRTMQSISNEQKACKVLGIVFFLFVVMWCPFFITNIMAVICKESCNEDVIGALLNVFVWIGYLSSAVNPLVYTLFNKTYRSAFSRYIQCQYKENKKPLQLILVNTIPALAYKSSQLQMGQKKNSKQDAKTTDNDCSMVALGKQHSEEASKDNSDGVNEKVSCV
T1 sequence (P28223 whole entry T25N/H452Y): as the sequence (P28223 whole entry T25N, looked up) above, with H452Y counted along it

Cn1cc(Br)c(-c2cccc(NC(=O)Nc3ccc(OC(F)(F)F)cc3)c2)n1 [Compound 103487, N-[3-(4-bromo-1-methylpyrazol-3-yl)phenyl][{(4-trifluoromethoxy)phenyl}amino]carboxamide]
IC50 ([1]; 1 nM [3H]LSD, COS7 membranes, read-out: Competitive Binding WT 5HT2A ([3H]LSD) IC50 Value): 46 nM
IC50 ([2]; read-out: Inositol Phosphate Accumulation AP-3 IC50 Value): 52 nM and 90 nM

CSc1ccc(NC(=O)Nc2cccc(-c3nn(C)cc3Br)c2)cc1 [Compound 116079, N-[3-(4-bromo-1-methylpyrazol-3-yl)phenyl][(4-methylthiophenyl)amino]carboxamide]
IC50 [1, 3]: 4 nM
remaining activity at 10 µM [2]: 16%
IC50 [2, 4]: 17 nM

Cn1cc(Br)c(-c2cccc(NC(=O)Nc3ccc(Cl)cc3)c2)n1 [Compound 116081, N-[3-(4-bromo-1-methylpyrazol-3-yl)phenyl][(4-chlorophenyl)amino]carboxamide]
difference in selectivity preference (IC50 values) for the 5HT2A receptor compared with the 5HT2C receptor [1]: 100 fold
IC50 [1, 3]: 11 nM
remaining activity at 10 µM [2]: 10%
IC50 [2, 4]: 3.2 nM

Cn1cc(Br)c(-c2cccc(NC(=O)Nc3ccc(F)cc3)c2)n1 [Compound 116082, {[3-(4-bromo-1-methylpyrazol-3-yl)phenyl]-amino}-N-(4-fluorophenyl)carboxamide]
difference in selectivity preference (IC50 values) for the 5HT2A receptor compared with the 5HT2C receptor [1]: 100 fold
IC50 [1, 3]: 7 nM
remaining activity at 10 µM [2]: 11%

Cn1cc(Br)c(-c2cccc(NC(=O)Nc3ccccc3OC(F)(F)F)c2)n1 [Compound 116087, {[3-(4-bromo-1-methylpyrazol-3-yl)phenyl]-amino}-N-[2-(trifluoromethoxy)phenyl]carboxamide]
IC50 [1, 3]: 200 nM
remaining activity at 10 µM [2, 5]: 11%

Cn1cc(Br)c(-c2cccc(NC(=O)Nc3ccccc3[N+](=O)[O-])c2)n1 [Compound 116089, {[3-(4-bromo-1-methylpyrazol-3-yl)phenyl]-amino}-N-(2-nitrophenyl)carboxamide]
IC50 [1, 3]: 238 nM
remaining activity at 10 µM [2, 5]: 27%

COc1ccc(NC(=O)Nc2cccc(-c3nn(C)cc3Br)c2)cc1 [Compound 116091, {[3-(4-bromo-1-methylpyrazol-3-yl)phenyl]-amino}-N-(4-methoxyphenyl)carboxamide]
IC50 [1, 3]: 19 nM
remaining activity at 10 µM [2]: 12%

Cc1ccccc1NC(=O)Nc1cccc(-c2nn(C)cc2Br)c1 [Compound 116092, {[3-(4-bromo-1-methylpyrazol-3-yl)phenyl]amino}-N-(2-methylphenyl)carboxamide]
IC50 [1, 3]: 131 nM
remaining activity at 10 µM [2, 5]: 32%

Cn1cc(Br)c(-c2cccc(NC(=O)Nc3ccc(C(F)(F)F)cc3)c2)n1 [Compound 116097, {[3-(4-bromo-1-methylpyrazol-3-yl)phenyl]-amino}-N-[4-(trifluoromethyl)phenyl]carboxamide]
IC50 [1, 3]: 65 nM
remaining activity at 10 µM [2]: 11%

Cn1cc(Br)c(-c2cccc(NC(=O)Nc3cccc(Cl)c3)c2)n1 [Compound 116105, {[3-(4-bromo-1-methylpyrazol-3-yl)phenyl]-amino}-N-(3-chlorophenyl)carboxamide]
IC50 [1, 3]: 39 nM
remaining activity at 10 µM [2]: 11%

Cn1cc(Br)c(-c2cccc(NC(=O)Nc3ccccc3Cl)c2)n1 [Compound 116108, {[3-(4-bromo-1-methylpyrazol-3-yl)phenyl]-amino}-N-[2-chlorophenyl)carboxamide]
IC50 [1, 3]: 249 nM
remaining activity at 10 µM [2, 5]: 6%

CC(C)c1ccc(NC(=O)Nc2cccc(-c3nn(C)cc3Br)c2)cc1 [Compound 116110, {[3-(4-bromo-1-methylpyrazol-3-yl)phenyl]amino}-N-[4-(methylethyl)phenyl]carboxamide]
IC50 [1, 3]: 338 nM
IP3 % of Control [2, 5]: 7%

COc1cccc(NC(=O)Nc2cccc(-c3nn(C)cc3Br)c2)c1 [Compound 116111, {[3-(4-bromo-1-methylpyrazol-3-yl)phenyl]-amino}-N-(3-methoxyphenyl)carboxamide]
IC50 [1, 3]: 106 nM
remaining activity at 10 µM [2, 5]: 7%

Cc1cccc(NC(=O)Nc2cccc(-c3nn(C)cc3Br)c2)c1 [Compound 116112, [{3-(4-bromo-1-methylpyrazol-3-yl)phenyl}-amino]-N-(3-methylphenyl)carboxamide]
IC50 [1, 3]: 57 nM
remaining activity at 10 µM [2]: 14%

CN(C(=O)Nc1cccc(-c2nn(C)cc2Br)c1)c1ccc(OC(F)(F)F)cc1 [Compound 116113, [{3-(4-bromo-1-methylpyrazol-3-yl)phenyl}-amino]-N-methyl-N-[4-(trifluoromethoxy)phenyl]carboxamide]
IC50 [1, 3]: 2 nM
IC50 [2, 4]: 193 nM

Cn1cc(Br)c(-c2cccc(NC(=O)Nc3ccc(C(C)(C)C)cc3)c2)n1 [Compound 116119, N-[4-(tert-butyl)phenyl]{[3-(4-bromo-1-methylpyrazol-3-yl)phenyl]amino}carboxamide]
IC50 [1, 3]: 476 nM
remaining activity at 10 µM [2, 5]: 17%

CN(C)c1ccc(NC(=O)Nc2cccc(-c3nn(C)cc3Br)c2)cc1 [Compound 116122, N-[4-(dimethylamino)phenyl]{[3-(4-bromo-1-methylpyrazol-3-yl)phenyl]amino}carboxamide]
IC50 [1, 3]: 309 nM
remaining activity at 10 µM [2, 5]: 9%

Cn1cc(Br)c(-c2cccc(NC(=O)Cc3ccc(OC(F)(F)F)cc3)c2)n1 [Compound 116137, N-[3-(4-bromo-1-methylpyrazol-3-yl)phenyl]-2-[4-(trifluoromethoxy)-phenyl]acetamide]
IC50 [1, 3]: 106 nM

Cc1c(Cl)cc(NC(=O)Nc2cccc(-c3nn(C)cc3Br)c2)cc1Cl [Compound 116138, N-(3,5-dichloro-4-methylphenyl){[3-(4-bromo-1-methylpyrazol-3-yl)phenyl]amino}carboxamide]
IC50 [1, 3]: 122 nM
remaining activity at 10 µM [2, 5]: 23%

Cn1cc(Br)c(-c2cccc(NC(=O)Nc3ccc(SC(F)(F)F)cc3)c2)n1 [Compound 116139, {[3-(4-bromo-1-methylpyrazol-3-yl)phenyl]-amino}-N-[4-(trifluoromethylthio)phenyl]carboxamide]
IC50 [1, 3]: 56 nM
remaining activity at 10 µM [2]: 12%

Cn1cc(Br)c(-c2cccc(NC(=O)NC3CCCCC3)c2)n1 [Compound 116141, N-[3-(4-bromo-1-methylpyrazol-3-yl)phenyl]-[cyclohexylamino]carboxamide]
IC50 [1, 3]: 81 nM
IC50 [2, 4]: 114 nM

Cn1cc(Br)c(-c2cccc(NC(=O)NCc3ccccc3)c2)n1 [Compound 116143, N-[3-(4-bromo-1-methylpyrazol-3-yl)phenyl]-[phenylmethylamino]carboxamide]
IC50 [1, 3]: 47 nM
IC50 [2, 4]: 120 nM

Cn1cc(Br)c(-c2cccc(NC(=O)Nc3ccccc3F)c2)n1 [Compound 116144, {[3-(4-bromo-1-methylpyrazol-3-yl)phenyl]-amino}-N-(2-fluorophenyl)carboxamide]
IC50 [1, 3]: 37 nM
remaining activity at 10 µM [2]: 12%

Cn1cc(Br)c(-c2cccc(NC(=O)Nc3ccccc3C(N)=O)c2)n1 [Compound 116145, 2-({[3-(4-bromo-1-methylpyrazol-3-yl)phenyl]-amino}carbonylamino)benzamide]
IC50 [1, 3]: 7470 nM
remaining activity at 10 µM [2, 5]: 31%

Cn1cc(Br)c(-c2cccc(NC(=O)Nc3ccc(C#N)cc3)c2)n1 [Compound 116147, {[3-(4-bromo-1-methylpyrazol-3-yl)phenyl]-amino}-N-(4-cyanophenyl)carboxamide]
IC50 [1, 3]: 2 nM
remaining activity at 10 µM [2]: 12%

Cn1cc(Br)c(-c2cccc(NC(=O)Nc3ccccc3C#N)c2)n1 [Compound 116148, {[3-(4-bromo-1-methylpyrazol-3-yl)phenyl]-amino}-N-(2-cyanophenyl)carboxamide]
IC50 [1, 3]: 348 nM
remaining activity at 10 µM [2, 5]: 30%

Cn1cc(Br)c(-c2cccc(NC(=O)Cc3cccc(F)c3)c2)n1 [Compound 116174, N-[3-(4-bromo-1-methylpyrazol-3-yl)phenyl]-2-(3-fluorophenyl)acetamide]
IC50 [1, 3]: 318 nM
IC50 [2, 4]: 153 nM

COc1cccc(CC(=O)Nc2cccc(-c3nn(C)cc3Br)c2)c1 [Compound 116175, N-[3-(4-bromo-1-methylpyrazol-3-yl)phenyl]-2-(3-methoxyphenyl)acetamide]
IC50 [1, 3]: 625 nM
IC50 [2, 4]: 108 nM

Cn1cc(Br)c(-c2cccc(NC(=O)Cc3ccccc3F)c2)n1 [Compound 116176, N-[3-(4-bromo-1-methylpyrazol-3-yl)phenyl]-2-(2-fluorophenyl)acetamide]
IC50 [1, 3]: 662 nM
IC50 [2, 4]: 129 nM

Cn1cc(Br)c(-c2cccc(NC(=O)Cc3ccc([N+](=O)[O-])cc3)c2)n1 [Compound 116177, N-[3-(4-bromo-1-methylpyrazol-3-yl)phenyl]-2-(4-nitrophenyl)acetamide]
IC50 [1, 3]: 108 nM
IC50 [2, 4]: 61 nM

COc1ccccc1CC(=O)Nc1cccc(-c2nn(C)cc2Br)c1 [Compound 116178, N-[3-(4-bromo-1-methylpyrazol-3-yl)phenyl]-2-(2-methoxyphenyl)acetamide]
IC50 [1, 3]: 2300 nM
IC50 [2, 4]: 165 nM

COc1ccc(CNC(=O)Nc2cccc(-c3nn(C)cc3Br)c2)cc1OC [Compound 116183, N-[3-(4-bromo-1-methylpyrazol-3-yl)phenyl]-[{(3,4-dimethoxyphenyl)methyl}amino-]carboxamide]
IC50 [1, 3]: 1010 nM

COc1cc(CNC(=O)Nc2cccc(-c3nn(C)cc3Br)c2)cc(OC)c1OC [Compound 116184, N-[3-(4-bromo-1-methylpyrazol-3-yl)phenyl]-[{(3,4,5-trimethoxyphenyl)methyl}amino]-carboxamide]
IC50 [1, 3]: 2960 nM

Cc1ccccc1CNC(=O)Nc1cccc(-c2nn(C)cc2Br)c1 [Compound 116185, N-[3-(4-bromo-1-methylpyrazol-3-yl)phenyl][{(2-methylphenyl)methyl}amino]carboxamide]
IC50 [1, 3]: 769 nM

COc1ccc(CNC(=O)Nc2cccc(-c3nn(C)cc3Br)c2)cc1 [Compound 116189, N-[3-(4-bromo-1-methylpyrazol-3-yl)phenyl][{(4-methoxyphenyl)methyl}amino]carboxamide]
IC50 [1, 3]: 102 nM
